The source of these data is patent publication US20250073281A1, “LACTOBACILLUS REUTERI HAVING IMPROVED ANTI-AGING AND HAIR HEALTH ENHANCEMENT EFFECTS, AND APPLICATION THEREOF” (priority 2021, published 2025).

In brackets after ≈: the same amount, converted by molar mass. Read-outs that look alike come from different tables or passages of the source.

The subject of this assay is Lactobacillus reuteri VHProbi E18. Nature of the assay: Antibiotic tolerance experiment, MIC by broth microdilution. Format: cell-based. The following applies: for MIC: antibiotic against Lactobacillus reuteri VHProbi E18. Here is the method:
The minimum inhibitory concentration (MIC) value of antibiotics against Lactobacillus reuteri VHProbi E18 was determined by the broth microdilution method.
(In broth dilution the organism is exposed to a series of concentrations in liquid medium.)

The mark [1] stands for this setting: Limosilactobacillus reuteri, read-out: MIC.

`[H]/N=C(/N)N[C@H]1[C@H](O)[C@@H](O)[C@H](O[C@@H]2O[C@@H](C)[C@](O)(C=O)[C@H]2O[C@@H]2O[C@@H](CO)[C@H](O)[C@@H](O)[C@@H]2NC)[C@@H](N/C(N)=N\[H])[C@@H]1O` [Streptomycin]: the MIC – broadly, the lowest concentration found to suppress growth – under setting [1] is 512 µg/mL (≈ 880 µM).

For `CN(C)[C@@H]1C(O)=C(C(N)=O)C(=O)[C@@]2(O)C(O)=C3C(=O)c4c(O)cccc4[C@@](C)(O)[C@H]3C[C@@H]12` [Tetracycline], the minimum inhibitory concentration (MIC) under setting [1] was 16 µg/mL (≈ 36 µM).

Regarding `CC1(C)S[C@@H]2[C@H](NC(=O)[C@H](N)c3ccccc3)C(=O)N2[C@H]1C(=O)O` [Ampicillin], the “sensitivity of Lactobacillus reuteri VHProbi E18 to the antibiotic” value was “sensitive”. Besides, under setting [1], the MIC was determined as 1 µg/mL (≈ 2.86 µM).

`CC[C@H]1OC(=O)[C@H](C)[C@@H](O[C@H]2C[C@@](C)(OC)[C@@H](O)[C@H](C)O2)[C@H](C)[C@@H](O[C@@H]2O[C@H](C)C[C@H](N(C)C)[C@H]2O)[C@](C)(O)C[C@@H](C)C(=O)[C@H](C)[C@@H](O)[C@]1(C)O` [Erythromycin]: the “sensitivity of Lactobacillus reuteri VHProbi E18 to the antibiotic” value is reported as “sensitive”. The MIC under setting [1] worked out at 1 µg/mL (≈ 1.36 µM).

Turning to Gentamicin, the MIC was 256 µg/mL.

Consider `CCC[C@@H]1C[C@@H](C(=O)N[C@@H]([C@H]2O[C@H](SC)[C@H](O)[C@@H](O)[C@H]2O)[C@H](C)Cl)N(C)C1` [Clindamycin], for which the MIC under setting [1] came to 256 µg/mL (≈ 602 µM).
